Among the test systems are LXFL 529; M19-MEL; DLD-1; DMS-273; HOP-18; MDA-N; BT-549; DMS-114.
What all share (test): growth of human tumour cells (NCI), 48 h

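Briefly, cells in 96-well plates were exposed to five compound concentrations for 48 h, and endpoints were estimated by linear interpolation. GI50 is the concentration that inhibits growth by half.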 Activity calls are given as the source filed them. No stated cut-off is given here; in the data, active = GI50 up to about 1.1 µM and inactive = higher. Residues, ends and D or L forms follow the SMILES beside them. Groups on a side chain read outwards from the residue. *: point of attachment. Cbz = O=C(OCc1ccccc1)*; Boc = CC(C)(C)OC(=O)*

For `COc1ccc2c(c1)CC[C@@H]1C2CC[C@]2(C)C(=N\O)/C(=N/O)CC12` (stereo not given in full), the GI50 in the assay on LXFL 529 is 12.8 µM (inactive); with M19-MEL, 17.2 µM (inactive); with DLD-1, 13.1 µM (inactive); in the assay on DMS-273 it was 12 µM (inactive); in the assay on HOP-18, 15.7 µM (inactive).
As to `O=C(Nc1nc(C23CC4CC(CC(C4)C2)C3)cs1)c1c(O)c2ccccc2[nH]c1=O`, the GI50 in the assay on MDA-N and with BT-549 was > 100 µM (inactive) each time.
For the molecule `COC(=O)C1=COc2c(n(C)c3ccccc23)-c2ccccc21`, the GI50 with MDA-N and in the assay on BT-549 was > 100 µM (inactive) throughout.
Turning to `CC(C)(C)/C(=N\Nc1nc2ccccc2[nH]1)c1ccccn1`, the GI50 in the assay on MDA-N and with BT-549 was > 100 µM (inactive) in each case.
In the case of `CCCN1CN(C(C(=O)N[C@@H]2C(=O)N3C2SC(C)(C)C3C(=O)O)c2ccc(O)cc2)CSC1=S` (stereo not given in full), the GI50 in the assay with LXFL 529 is 61.4 µM (inactive); in the assay on M19-MEL, > 100 µM (inactive); with DLD-1, 52.8 µM (inactive); with DMS-273, > 100 µM (inactive); with HOP-18, > 100 µM (inactive); in the assay on DMS-114, 19.1 µM (inactive).
As for `O=C1c2cccc(O)c2C(=O)c2c(O)cccc21` [DANTHRON], the GI50 in the assay with LXFL 529 is > 100 µM (inactive); in the assay with M19-MEL, 3.66 µM (inactive); with DLD-1, 45 µM (inactive); in the assay with DMS-273, 31.6 µM (inactive); in the assay with DMS-114 it was 38 µM (inactive).
In the case of `COc1cccc(OCC(=N/NC(=O)c2ccncc2)/N=C/c2cccnc2)c1`, the GI50 with MDA-N and with BT-549 was > 100 µM (inactive) throughout.
Turning to `NC(=O)CN1CC(C2=C(O)CN(CC(N)=O)C2=O)=CC1=O`, the GI50 in the assay with BT-549 was > 100 µM (inactive).
Take `CN(/C(=N\O)c1ccccc1)c1ccccc1`: the GI50 was 34.8 µM (inactive) with LXFL 529; 78.2 µM (inactive) in the assay on M19-MEL; 29.4 µM (inactive) with DLD-1; 24.3 µM (inactive) in the assay with DMS-273; < 0.01 µM (active) in the assay with HOP-18; 25.6 µM (inactive) in the assay on DMS-114.
In the case of `N#C/C(=C\c1cn(Cc2ccccc2)c2ccccc12)c1nn(-c2ccccc2)c(N)c1C#N`, the GI50 in the assay with MDA-N is 23.2 µM (inactive); in the assay with BT-549, 22.3 µM (inactive).
Taken in the same sequence, the figures for `c1ccc(Cc2cccc3cc(-c4ccc(-c5ccccc5)cc4)[nH]c23)cc1` were > 100 µM (inactive) and > 100 µM (inactive).
In the case of `Cc1cc(C)c2c(O)cc(-c3cccc(Cl)c3)nc2n1`, the GI50 is 0.0138 µM (active) with MDA-N and 1.59 µM (inactive) with BT-549.
With `CCc1cc2c(oc3cc(C)ccc32)c(=O)n1C`, the GI50 with MDA-N and in the assay with BT-549 was > 10 µM (inactive) throughout.
Turning to `O=C(CSC1=NC(=O)C2(NN1)c1ccccc1-c1ccccc12)NC(=S)Nc1ccccc1`, the GI50 in the assay on MDA-N and with BT-549 was > 10 µM (inactive) throughout.
In the case of `COC1(OC)CC(CO)(CNc2nc(N)nc(Cl)c2/C=N\O)C1`, the GI50 in the assay with MDA-N is 63.2 µM (inactive); in the assay on BT-549, 25.3 µM (inactive).
On to `Cc1nnc2n1-c1ccccc1-c1[nH]c3ccccc3c1C2`, for which, in the assay with MDA-N, the GI50 is 61.1 µM (inactive).
The same measure, in the same setting: next, `CC(C)CC1C(=O)NCCC(NC(=O)C(N)Cc2ccc(O)cc2)C(=O)NC(Cc2ccccc2)C(=O)NC(Cc2ccccc2)NC1=O` (stereo not given): > 100 µM (inactive).
For the molecule `NC(=O)N/N=C1\CCCCc2ccccc21`, the GI50 in the assay with MDA-N and in the assay with BT-549 was > 10 µM (inactive) throughout.
As for `Cc1c(C(=O)c2ccc(N)c3ccccc23)c2ccccc2n1CCN1CCOCC1`, the GI50 in the assay on MDA-N is 16.3 µM (inactive); in the assay on BT-549, 27.4 µM (inactive).
With `Cc1nc2c(=S)n(C)ncc2[nH]1`, the GI50 with MDA-N and in the assay on BT-549 was > 100 µM (inactive) in each case.
On to `OC(c1cc2ccc(C(F)(F)F)cc2c2cc(C(F)(F)F)ccc12)C1CCCCN1` (stereo not given), for which the results for the GI50 in the assay on MDA-N and in the assay on BT-549 were 1.75 µM (inactive) and 1.92 µM (inactive), respectively.
`CC(CC(=O)Nc1ccc(NC(=O)CC(C)/N=N\C(N)=O)cc1)/N=N\C(N)=O` (stereo not given): the GI50 with LXFL 529 was > 100 µM (inactive); in the assay with M19-MEL it was > 100 µM (inactive); with DLD-1, 34.5 µM (inactive); in the assay on DMS-273, 41.6 µM (inactive); with HOP-18, > 100 µM (inactive); in the assay on DMS-114, 15.6 µM (inactive).
`CC(=O)Nc1ccc2c(c1)[nH]c(=O)c1cc(Cl)ccc12`: in the assay with BT-549, the GI50 was 25.8 µM (inactive).
Regarding `O=CC(NC(=O)N(CCCl)N=O)C(O)C(O)C(O)CO` (stereo not given), the GI50 with MDA-N was 312 µM (inactive); in the assay with BT-549, 499 µM (inactive); with DLD-1, > 1250 µM (inactive); in the assay with DMS-273, 1000 µM (inactive); with HOP-18 it was > 1250 µM (inactive); in the assay on DMS-114 it was 1040 µM (inactive).
Regarding `CC(=O)OCC1(C)C(O)CCC2(C)C1CCC1CC3CC12CCC3(O)CO` (stereo not given), the GI50 in the assay on MDA-N was > 100 µM (inactive); with BT-549 it was > 86.3 µM (inactive).
Take `CS(=O)(=O)c1ccc(C2=C(c3ccccc3)C(=O)OC2)cc1` [ROFECOXIB]: in the assay with MDA-N, the GI50 was > 100 µM (inactive).
For the molecule `O=C(CN1C(=O)c2ccccc2C1=O)C(O)CN1C(=O)c2ccccc2C1=O` (stereo not given), the GI50 is > 100 µM (inactive) in the assay on MDA-N and 48.1 µM (inactive) with BT-549.
For `CC(=O)CC(=O)ON(C)C(C)=O`, the GI50 in the assay with LXFL 529, in the assay with M19-MEL, with DLD-1, with DMS-273 and with DMS-114 was > 100 µM (inactive) in each case.
`Cc1[nH]c2ccccc2c1C1Cc2ccccc2N1C(=O)/C=C/C=C/c1ccccc1` (stereo not given): the GI50 in the assay on LXFL 529, in the assay with M19-MEL, with DLD-1, with DMS-273 and in the assay on DMS-114 was > 100 µM (inactive) in each case.
Turning to `COc1c(N2CCCCC2)c2c(=O)c3ccccc3oc2c2c3ccccc3n(C)c12`, the figures for the GI50 in the assay on MDA-N and in the assay with BT-549 were 38.1 µM (inactive) and 98.6 µM (inactive), respectively.
With `CC1CCC(C(C)C)C(OC(=O)NCn2cc(-c3ccccc3)nn2)C1` (stereo not given), in the assay with BT-549, the GI50 was > 100 µM (inactive).
Regarding `N/C1=C/C(=O)NC(=O)c2c(c3ccccc3oc2=O)C1`, the GI50 in the assay with MDA-N and in the assay on BT-549 was > 100 µM (inactive) in each case.
Take `Nc1ncnc2ccc(Sc3ccc4ncnc(N)c4c3)cc12`: the GI50 with BT-549 is > 100 µM (inactive).
As for `C[C@]12CC[C@@H]3c4ccc(O)cc4CC[C@H]3[C@@H]1CC[C@@H]2OC(=O)CCc1ccccc1`, the GI50 with MDA-N is 7.46 µM (inactive); in the assay on BT-549, 18.5 µM (inactive).
In the same order, the values of `C[C@]12C(=O)OC[C@H](c3ccccc3)N1C(=O)N(Cc1ccccc1)[C@@H]2CO` are > 100 µM (inactive) and > 100 µM (inactive).
Consider `S=C(/N=c1\sc(NCc2ccccc2)nc2sc3c(c12)CCN(N1CCc2c(sc4nc(NCc5ccccc5)s/c(=N\C(=S)NCc5ccccc5)c24)C1)C3)NCc1ccccc1`, for which the GI50 is 42.5 µM (inactive) in the assay with MDA-N and 62.2 µM (inactive) with BT-549.
Turning to `CC[C@@]1(C)CCC2c3ccc(O)cc3CC[C@H]2C1C` (stereo not given in full), the GI50 is 13.1 µM (inactive) with MDA-N and 19 µM (inactive) in the assay on BT-549.
With `O=C1/C(=C/c2ccccc2)CN(C(=O)OCC(Cl)(Cl)Cl)C/C1=C\c1ccccc1`, the GI50 was 1.78 µM (inactive) with LXFL 529; 1.39 µM (inactive) in the assay on M19-MEL; 1.91 µM (inactive) in the assay with DLD-1; 1.5 µM (inactive) in the assay on DMS-273; 3.57 µM (inactive) in the assay on HOP-18; 1.95 µM (inactive) in the assay on DMS-114.
Turning to `COc1nc(O)nc2c1C(c1ccc([N+](=O)[O-])cc1)c1c(OC)nc(O)nc1O2`, the GI50 in the assay on MDA-N and in the assay with BT-549 was > 100 µM (inactive) in each case.
With `CC(C)NCCC(O)c1cc2ccccc2o1` (stereo not given), the GI50 in the assay with MDA-N and in the assay with BT-549 was > 100 µM (inactive) each time.
As to `COC(=O)/C=C(/C(=O)OC)c1c(C)cc2c(C)cc(C)cc(C)c1-2`, the GI50 was 2.4 µM (inactive) with MDA-N and 15 µM (inactive) with BT-549.
Consider `COC(=O)N/N=C(\C)C(CN1CCOCC1)C(c1ccccc1)c1cc2ccccc2oc1=O` (stereo not given), for which, in the assay with BT-549, the GI50 was 68.7 µM (inactive).
Still for that read-out and setting: next, `CS(=O)(=O)CCC1CCC(=O)O1` (stereo not given): 53 µM (inactive).
With `CSc1ccc2c(c1)N(CCCN(C)C)c1ccccc1S2`, the values for the GI50 in the assay on MDA-N and in the assay with BT-549 were 10.7 µM (inactive) and 15.4 µM (inactive), respectively.
Taken in the same sequence, the figures for `CCC1c2[nH]c3ccccc3c2C[C@H]2C(=O)NC(Cc3ccccc3)C(=O)N12` (stereo not given in full) were 25.8 µM (inactive) and 22.4 µM (inactive).
Consider `Nc1ncnc2c1ncn2C1C=CC(COS(N)(=O)=O)C1` (stereo not given), for which the GI50 in the assay with MDA-N was 22.5 µM (inactive).
For `CCCCCCCC/C=C\CCCCCCC(F)C(=O)O` (stereo not given), in the assay on MDA-N, the GI50 is > 12.5 µM (inactive).
As to `COC(=O)c1cccc(COc2ccc([N+](=O)[O-])cc2Cl)c1`, the GI50 with BT-549 is > 100 µM (inactive).
Consider `Clc1cc(Cl)c2cc3cccc[n+]3cc2c1Cl`, for which the GI50 is 16.5 µM (inactive) in the assay on MDA-N and 6.76 µM (inactive) in the assay with BT-549.
Turning to `CC(C)(C)OC(=O)NC(CCCCNC(=O)CNC(=O)OCc1ccccc1)C(=O)NC(CCCCNC(=O)CNC(=O)OCc1ccccc1)C(=O)NC(CCCCNC(=O)CNC(=O)OCc1ccccc1)C(=O)NC(CCCCNC(=O)CNC(=O)OCc1ccccc1)C(=O)O` (stereo not given) (Boc-K([Gly-Cbz])K([Gly-Cbz])K([Gly-Cbz])K([Gly-Cbz])-OH; configuration not given here), the GI50 with MDA-N and with BT-549 was > 100 µM (inactive) each time.
Consider `O=C(OCCN=C1c2ccccc2CCc2ccccc21)c1cc([N+](=O)[O-])cc([N+](=O)[O-])c1`, for which the GI50 in the assay with MDA-N was > 31.6 µM (inactive); in the assay with BT-549 it was > 100 µM (inactive).
Turning to `C=C(C)CN(CC#N)CC(=C)C`, the GI50 with MDA-N and with BT-549 was > 100 µM (inactive) throughout.
As for `COc1ccc(N2C(=O)/C(=C\c3cccc(Oc4ccccc4)c3)S(=O)(=O)C2c2ccccc2)cc1` (stereo not given), the GI50 with MDA-N was 19.1 µM (inactive); in the assay with BT-549 it was 25.6 µM (inactive).
As for `CCCC(=O)N[C@@H](Cc1cc(I)c(O)c(I)c1)C(=O)NCCCNCCCCNCCCNC(=O)[C@@H](N)CCCN=C(N)N`, the GI50 in the assay with LXFL 529 is 78 µM (inactive); in the assay with M19-MEL, 40.1 µM (inactive); with DMS-273, 27.4 µM (inactive); in the assay on DMS-114, > 100 µM (inactive).

These data come from ChEMBL document CHEMBL1201862, “PubChem BioAssay data set” (2004).
